Values after ≈ are worked out from the molar mass of the structure shown. Blank lines part the entries; values can stand above or below the molecule they belong to. Active and inactive are the calls of the source. The calls are words filed in the database; no cut-off is given here.
Tests used:
[1] = Intrinsic clearance in human liver microsomes at 1 umol/l after 15 to 30 mins in presence of NADPH by LC-MS/MS analysis; format: ADME, microsome; settings: read-out: CLH
[2] = target: T1, Cyclin-dependent kinase 8 (Homo sapiens, UniProt P49336); assay: Inhibition of CDK8 in human SW480 cells assessed as decrease in STAT1 phosphorylation at Ser727 after 2 hrs by Western blot method
[3] = Aqueous solubility of the compound in DMSO at pH 6.8 by HPLC method; format: physicochemical
[4] = target: Cyclin-C/Cyclin-dependent kinase 19 (Homo sapiens, UniProt Q9BWU1); assay: Inhibition of kinase tracer-236 binding to GST-tagged CDK19/CyclinC (unknown origin) after 60 mins by TR-FRET assay; format: protein-complex assay
CDK8/Cyclin C [5] = target: T2, CDK8/Cyclin C (Homo sapiens, UniProt P49336); assay: Inhibition of kinase tracer-236 binding to GST-tagged CDK8/CyclinC (unknown origin) after 60 mins by TR-FRET assay; format: protein-complex assay
[6] = target: T1, Cyclin-dependent kinase 8; assay: Inhibition of CDK8 in human A549 cells by mass spectrometric method; format: cell-based
CDK8/Cyclin C [7] = target: T2, CDK8/Cyclin C; assay: Inhibition of full length recombinant human His-tagged CDK8/Cyclin C expressed in baculovirus expression system using Ulight-GS peptide as substrate measured after 30 mins by TR-FRET based LANCE assay
SET-2 = assay: Antitumor activity against human SET2 cells implanted in […] assessed as reduction in tumor volume administered intraperitoneally relative to control; format: functional; design: scale not given: the % may be the effect or the level left
[8] = target: T1, Cyclin-dependent kinase 8; assay: Inhibition of CDK8 (unknown origin) at 1 uM by ADP-Glo assay
[9] = target: T1, Cyclin-dependent kinase 8; assay: Inhibition of CDK8 induced beta-catenin transcriptional activity in human HCT116 cells by luciferase reporter gene assay; format: cell-based
CDK8/Cyclin C [10] = target: T2, CDK8/Cyclin C; assay: Inhibition of full length recombinant human His-tagged CDK8/Cyclin C expressed in baculovirus expression system by LanthaScreen assay
[11] = target: Proto-oncogene tyrosine-protein kinase Src (Homo sapiens) (UniProt P12931); assay: Inhibition of SRC (unknown origin) at <1 uM using biotinylated poly[Glu:Tyr] (4:1) as substrate pretreated for 5 mins followed by substrate addition measured after 10 mins by Alphascreen assay
[12] = target: Aurora kinase B (Homo sapiens) (UniProt Q96GD4); assay: Inhibition of Aurora B (unknown origin) at <1 uM using aurora peptide as substrate preincubated for 5 mins followed by substrate addition measured after 60 mins in presence of [gamma33P]ATP by scintillation counter method
Homo sapiens = species: Homo sapiens; assay: Inhibition of PKA (unknown origin) at 1 uM using PKA peptide as substrate preincubated for 5 mins followed by substrate addition measured after 10 mins in presence of [gamma33P]ATP by scintillation counter method relative to control
[13] = target: Hepatocyte growth factor receptor (Homo sapiens) (UniProt P08581); assay: Inhibition of cMET (unknown origin) at <1 uM
[14] = target: Glycogen synthase kinase-3 beta (Homo sapiens) (UniProt P49841); assay: Inhibition of GSK3beta (unknown origin) at 1 uM using GSK3 substrate peptide preincubated for 5 mins followed by substrate addition measured after 30 mins in presence of [gamma33P]ATP by scintillation counter method relative to control
[15] = target: CDC7/DBF4 (Cell division cycle 7-related protein kinase/Activator of S phase kinase) (Homo sapiens) (UniProt Q9UBU7+O00311); assay: Inhibition of CDC7/Dbf4 (unknown origin) at 1 uM using His-tagged MCM2 as substrate preincubated for 5 mins followed by substrate addition measured after 60 mins in presence of [gamma33P]ATP by scintillation counter method relative to control; format: protein-complex assay
[16] = target: CDK2/Cyclin A2 (Homo sapiens) (UniProt P24941+P20248); assay: Inhibition of CDK2/cyclin A (unknown origin) at 1 uM using histone H1 as substrate preincubated for 5 mins followed by substrate addition measured after 20 mins in presence of [gamma33P]ATP by scintillation counter method relative to control; format: protein-complex assay
[17] = target: Serine/threonine-protein kinase Chk1 (Homo sapiens) (UniProt O14757); assay: Inhibition of CHK1 (unknown origin) at <1 uM using CHKtide as substrate preincubated for 5 mins followed by substrate addition measured after 10 mins in presence of [gamma33P]ATP by scintillation counter method
[18] = target: Ephrin type-A receptor 5 (Homo sapiens) (UniProt P54756); assay: Inhibition of EphA5 (unknown origin) at <1 uM using biotinylated poly[Glu:Tyr] (4:1) as substrate pretreated for 5 mins followed by substrate addition measured after 10 mins by Alphascreen assay
[19] = target: RAC-alpha serine/threonine-protein kinase (Homo sapiens) (UniProt P31749); assay: Inhibition of Akt1 (unknown origin) at <1 uM using AKT1 substrate pretreated for 5 mins followed by substrate addition after 20 mins in presence of [gamma33P]ATP by scintillation counter method
[20] = target: High affinity nerve growth factor receptor (Homo sapiens) (UniProt P04629); assay: Inhibition of TrkA (unknown origin) at <1 uM
[21] = target: T3, Cyclin-dependent kinase 9 (Homo sapiens, UniProt P50750); assay: Inhibition of CDK9 (unknown origin) at 1 uM relative to control
[22] = target: Mitogen-activated protein kinase 14 (Homo sapiens) (UniProt Q16539); assay: Inhibition of p38alpha (unknown origin) at <1 uM using MBP as substrate preincubated for 5 mins followed by substrate addition measured after 60 mins in presence of [gamma32P]ATP by scintillation counter method
[23] = target: Insulin receptor (Homo sapiens) (UniProt P06213); assay: Inhibition of IRK (unknown origin) at <1 uM using biotinylated poly[Glu:Tyr] (4:1) as substrate pretreated for 5 mins followed by substrate addition measured after 60 mins by Alphascreen assay
[24] = target: Mitogen-activated protein kinase kinase kinase 5 (Homo sapiens) (UniProt Q99683); assay: Inhibition of ASK1 (unknown origin) at 1 uM using MBP as substrate preincubated for 5 mins followed by substrate addition measured after 60 mins in presence of [gamma33P]ATP by scintillation counter method relative to control
[25] = target: MAP kinase-activated protein kinase 2 (Homo sapiens) (UniProt P49137); assay: Inhibition of MAPKAPK2 (unknown origin) at <1 uM using KKLNRTLSVA-NH2 as substrate preincubated for 5 mins followed by substrate addition measured after 10 mins in presence of [gamma33P]ATP by scintillation counter method
[26] = target: Cyclin-C/Cyclin-dependent kinase 19 (Homo sapiens) (UniProt Q9BWU1+P24863); settings: 1 uM
Description: Inhibition of kinase tracer-236 binding to GST-tagged CDK19/CyclinC (unknown origin) at 1 uM after 60 mins by TR-FRET assay relative to control

[27] = target: Focal adhesion kinase 1 (Homo sapiens) (UniProt Q05397); assay: Inhibition of FAK (unknown origin) at <1 uM using biotinylated poly[Glu:Tyr] (4:1) as substrate pretreated for 5 mins followed by substrate addition measured after 20 mins by Alphascreen assay
[28] = target: Phosphatidylinositol 4,5-bisphosphate 3-kinase catalytic subunit alpha isoform (Homo sapiens) (UniProt P42336); assay: Inhibition of PI3Kalpha (unknown origin) at <1 uM
[29] = target: Tyrosine-protein kinase JAK1 (Homo sapiens) (UniProt P23458); assay: Inhibition of JAK1 (unknown origin) at <1 uM using biotinylated poly[Glu:Tyr] (4:1) as substrate pretreated for 5 mins followed by substrate addition measured after 10 mins by Alphascreen assay
[30] = target: CDK8/Cyclin C (Homo sapiens) (UniProt P49336+P24863); settings: 1 uM
Description: Inhibition of kinase tracer-236 binding to GST-tagged CDK8/CyclinC (unknown origin) at 1 uM after 60 mins by TR-FRET assay relative to control

[31] = target: Casein kinase I isoform delta (Homo sapiens) (UniProt P48730); assay: Inhibition of CK1delta (unknown origin) at 1 uM using CK1tide as substrate preincubated for 5 mins followed by substrate addition measured after 20 mins in presence of [gamma33P]ATP by scintillation counter method relative to control
[32] = target: Vascular endothelial growth factor receptor 2 (Homo sapiens) (UniProt P35968); assay: Inhibition of VEGFR2 (unknown origin) at <1 uM using biotinylated poly[Glu:Tyr] (4:1) as substrate pretreated for 5 mins followed by substrate addition measured after 10 mins by Alphascreen assay
[33] = target: T3, Cyclin-dependent kinase 9; assay: Inhibition of CDK9 (unknown origin)
[34] = target: Protein kinase C theta type (Homo sapiens) (UniProt Q04759); assay: Inhibition of PKCtheta (unknown origin) at 1 uM using MBP as substrate preincubated for 5 mins followed by substrate addition measured after 60 mins in presence of [gamma33P]ATP by scintillation counter method relative to control
[35] = target: Serine/threonine-protein kinase PLK1 (Homo sapiens) (UniProt P53350); assay: Inhibition of PLK1 (unknown origin) at 1 uM using alpha-casein as substrate preincubated for 5 mins followed by substrate addition measured after 60 mins in presence of [gamma33P]ATP by scintillation counter method relative to control
[36] = target: Dual specificity mitogen-activated protein kinase kinase 1 (Homo sapiens) (UniProt Q02750); assay: Inhibition of MEK1 (unknown origin) at <1 uM using GST-ERK1 as substrate preincubated for 5 mins followed by substrate addition measured after 20 mins in presence of [gamma33P]ATP by scintillation counter method
[37] = target: Mitogen-activated protein kinase 3 (Homo sapiens) (UniProt P27361); assay: Inhibition of ERK1 (unknown origin) at <1 uM using MBP as substrate preincubated for 5 mins followed by substrate addition measured after 60 mins in presence of [gamma33P]ATP by scintillation counter method
[38] = target: Rho-associated protein kinase 1 (Homo sapiens) (UniProt Q13464); assay: Inhibition of ROCK1 (unknown origin) at 1 uM using long S6 peptide as substrate pretreated for 5 mins followed by substrate addition measured after 10 mins in presence of [gamma33P]ATP by scintillation counting method relative to control

Cyclin-C/Cyclin-dependent kinase 19, sequence (Q9BWU1 whole entry): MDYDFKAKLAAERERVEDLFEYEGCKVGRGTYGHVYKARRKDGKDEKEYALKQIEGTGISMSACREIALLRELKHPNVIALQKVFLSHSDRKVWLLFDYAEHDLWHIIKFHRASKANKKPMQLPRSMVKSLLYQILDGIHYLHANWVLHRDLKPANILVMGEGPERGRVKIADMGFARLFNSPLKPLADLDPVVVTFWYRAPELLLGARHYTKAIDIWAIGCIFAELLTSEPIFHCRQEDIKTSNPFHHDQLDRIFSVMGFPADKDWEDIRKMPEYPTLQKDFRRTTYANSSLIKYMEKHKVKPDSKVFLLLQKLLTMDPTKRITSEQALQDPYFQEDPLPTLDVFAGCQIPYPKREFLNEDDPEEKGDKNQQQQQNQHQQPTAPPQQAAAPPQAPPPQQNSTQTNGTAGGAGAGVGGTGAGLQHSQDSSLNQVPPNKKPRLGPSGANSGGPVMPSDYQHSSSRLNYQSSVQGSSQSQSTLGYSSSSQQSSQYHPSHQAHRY
Cyclin-C/Cyclin-dependent kinase 19, sequence (P24863 whole entry, further chain): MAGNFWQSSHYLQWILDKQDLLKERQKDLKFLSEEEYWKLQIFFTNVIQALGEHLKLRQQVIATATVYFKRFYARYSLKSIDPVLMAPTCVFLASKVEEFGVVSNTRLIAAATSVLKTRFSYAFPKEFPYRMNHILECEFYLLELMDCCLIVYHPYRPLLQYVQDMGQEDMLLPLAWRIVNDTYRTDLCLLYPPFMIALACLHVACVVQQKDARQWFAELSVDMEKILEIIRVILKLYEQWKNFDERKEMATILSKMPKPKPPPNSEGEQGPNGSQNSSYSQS
T1 sequence (P49336 whole entry): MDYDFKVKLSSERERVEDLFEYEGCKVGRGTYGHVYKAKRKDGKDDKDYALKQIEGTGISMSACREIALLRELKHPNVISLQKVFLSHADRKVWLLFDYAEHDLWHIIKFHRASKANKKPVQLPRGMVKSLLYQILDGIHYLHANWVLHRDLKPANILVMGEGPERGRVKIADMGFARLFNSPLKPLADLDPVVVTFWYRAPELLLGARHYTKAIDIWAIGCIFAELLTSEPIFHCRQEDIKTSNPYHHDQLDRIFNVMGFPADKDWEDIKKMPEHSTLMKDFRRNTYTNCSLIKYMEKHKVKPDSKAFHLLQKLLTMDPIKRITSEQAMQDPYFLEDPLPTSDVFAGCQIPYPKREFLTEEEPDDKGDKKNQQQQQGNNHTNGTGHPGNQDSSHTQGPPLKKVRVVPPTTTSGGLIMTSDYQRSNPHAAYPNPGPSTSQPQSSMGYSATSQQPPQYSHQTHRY
T2 sequence (P49336 whole entry): as above
T2 sequence (P24863 whole entry, further chain): as the sequence (P24863 whole entry, further chain) above
T3 sequence (P50750 whole entry): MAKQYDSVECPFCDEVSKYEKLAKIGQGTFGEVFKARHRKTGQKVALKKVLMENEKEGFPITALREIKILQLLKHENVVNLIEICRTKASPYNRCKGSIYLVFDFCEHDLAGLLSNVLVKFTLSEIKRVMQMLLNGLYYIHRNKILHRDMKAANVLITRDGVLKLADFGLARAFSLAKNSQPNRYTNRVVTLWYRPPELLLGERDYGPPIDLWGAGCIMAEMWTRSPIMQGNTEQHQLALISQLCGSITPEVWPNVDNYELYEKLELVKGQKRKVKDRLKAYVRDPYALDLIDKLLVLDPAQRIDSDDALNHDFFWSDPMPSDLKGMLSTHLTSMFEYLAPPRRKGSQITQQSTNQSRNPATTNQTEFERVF
High affinity nerve growth factor receptor (Homo sapiens), sequence (P04629 33-796 limits assumed): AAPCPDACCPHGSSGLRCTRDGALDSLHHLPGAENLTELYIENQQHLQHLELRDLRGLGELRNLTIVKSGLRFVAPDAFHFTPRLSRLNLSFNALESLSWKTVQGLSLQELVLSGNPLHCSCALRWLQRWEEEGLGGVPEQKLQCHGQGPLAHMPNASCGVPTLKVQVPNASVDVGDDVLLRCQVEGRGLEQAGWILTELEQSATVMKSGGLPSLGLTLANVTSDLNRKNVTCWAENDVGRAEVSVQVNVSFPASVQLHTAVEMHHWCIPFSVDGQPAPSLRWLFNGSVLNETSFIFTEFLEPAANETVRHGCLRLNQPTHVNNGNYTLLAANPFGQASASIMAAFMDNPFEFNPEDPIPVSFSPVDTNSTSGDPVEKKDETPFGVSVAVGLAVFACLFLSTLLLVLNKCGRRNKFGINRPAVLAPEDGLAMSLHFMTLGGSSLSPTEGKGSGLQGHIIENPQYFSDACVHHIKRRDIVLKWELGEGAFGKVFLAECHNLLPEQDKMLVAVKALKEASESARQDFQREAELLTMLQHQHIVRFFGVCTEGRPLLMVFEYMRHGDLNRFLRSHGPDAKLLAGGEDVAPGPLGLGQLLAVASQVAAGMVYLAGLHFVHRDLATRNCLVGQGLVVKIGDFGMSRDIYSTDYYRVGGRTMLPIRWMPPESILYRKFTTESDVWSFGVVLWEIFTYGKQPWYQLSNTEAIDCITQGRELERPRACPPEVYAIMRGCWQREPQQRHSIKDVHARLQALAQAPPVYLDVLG
Serine/threonine-protein kinase PLK1 (Homo sapiens), sequence (P53350 whole entry): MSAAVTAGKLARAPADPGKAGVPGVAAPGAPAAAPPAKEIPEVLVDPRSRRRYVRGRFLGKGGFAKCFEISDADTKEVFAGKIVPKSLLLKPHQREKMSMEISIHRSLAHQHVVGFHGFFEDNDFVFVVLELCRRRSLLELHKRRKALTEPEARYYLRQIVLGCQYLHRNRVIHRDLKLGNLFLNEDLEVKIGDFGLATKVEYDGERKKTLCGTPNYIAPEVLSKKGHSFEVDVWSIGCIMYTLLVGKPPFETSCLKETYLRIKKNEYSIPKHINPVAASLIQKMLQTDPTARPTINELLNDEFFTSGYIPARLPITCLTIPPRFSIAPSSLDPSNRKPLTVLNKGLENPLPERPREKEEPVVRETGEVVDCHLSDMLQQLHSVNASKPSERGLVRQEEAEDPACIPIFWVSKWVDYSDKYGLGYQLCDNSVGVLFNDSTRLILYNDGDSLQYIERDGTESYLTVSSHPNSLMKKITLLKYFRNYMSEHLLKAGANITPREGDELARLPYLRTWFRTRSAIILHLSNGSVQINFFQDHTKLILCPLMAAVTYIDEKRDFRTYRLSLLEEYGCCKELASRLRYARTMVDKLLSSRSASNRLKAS
Aurora kinase B (Homo sapiens), sequence (Q96GD4 whole entry): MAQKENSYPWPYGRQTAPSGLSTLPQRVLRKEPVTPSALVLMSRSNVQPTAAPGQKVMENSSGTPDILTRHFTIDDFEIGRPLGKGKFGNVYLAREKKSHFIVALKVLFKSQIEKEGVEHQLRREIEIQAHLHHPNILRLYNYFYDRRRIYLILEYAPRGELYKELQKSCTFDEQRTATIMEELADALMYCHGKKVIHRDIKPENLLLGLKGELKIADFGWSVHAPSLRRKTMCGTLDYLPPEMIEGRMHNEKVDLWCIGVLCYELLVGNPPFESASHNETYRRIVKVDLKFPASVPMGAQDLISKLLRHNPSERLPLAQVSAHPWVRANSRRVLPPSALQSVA
CDC7/DBF4 (Cell division cycle 7-related protein kinase/Activator of S phase kinase) (Homo sapiens), sequence (O00311 whole entry, looked up): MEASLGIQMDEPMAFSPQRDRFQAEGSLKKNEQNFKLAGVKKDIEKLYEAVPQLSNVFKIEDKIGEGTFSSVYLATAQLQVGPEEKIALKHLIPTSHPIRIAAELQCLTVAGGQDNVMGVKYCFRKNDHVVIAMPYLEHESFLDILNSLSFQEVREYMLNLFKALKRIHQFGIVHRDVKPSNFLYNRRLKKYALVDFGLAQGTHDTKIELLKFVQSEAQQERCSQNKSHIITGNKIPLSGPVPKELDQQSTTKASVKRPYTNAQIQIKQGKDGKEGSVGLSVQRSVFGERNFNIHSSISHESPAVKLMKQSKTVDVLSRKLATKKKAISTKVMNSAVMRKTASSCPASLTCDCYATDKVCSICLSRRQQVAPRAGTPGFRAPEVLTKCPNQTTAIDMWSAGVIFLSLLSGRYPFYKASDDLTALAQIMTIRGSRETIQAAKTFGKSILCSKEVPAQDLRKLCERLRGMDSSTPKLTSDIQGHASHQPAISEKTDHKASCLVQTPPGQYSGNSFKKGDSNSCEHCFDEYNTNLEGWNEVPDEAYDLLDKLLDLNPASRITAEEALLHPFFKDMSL
CDC7/DBF4 (Cell division cycle 7-related protein kinase/Activator of S phase kinase) (Homo sapiens), sequence (Q9UBU7 whole entry, looked up): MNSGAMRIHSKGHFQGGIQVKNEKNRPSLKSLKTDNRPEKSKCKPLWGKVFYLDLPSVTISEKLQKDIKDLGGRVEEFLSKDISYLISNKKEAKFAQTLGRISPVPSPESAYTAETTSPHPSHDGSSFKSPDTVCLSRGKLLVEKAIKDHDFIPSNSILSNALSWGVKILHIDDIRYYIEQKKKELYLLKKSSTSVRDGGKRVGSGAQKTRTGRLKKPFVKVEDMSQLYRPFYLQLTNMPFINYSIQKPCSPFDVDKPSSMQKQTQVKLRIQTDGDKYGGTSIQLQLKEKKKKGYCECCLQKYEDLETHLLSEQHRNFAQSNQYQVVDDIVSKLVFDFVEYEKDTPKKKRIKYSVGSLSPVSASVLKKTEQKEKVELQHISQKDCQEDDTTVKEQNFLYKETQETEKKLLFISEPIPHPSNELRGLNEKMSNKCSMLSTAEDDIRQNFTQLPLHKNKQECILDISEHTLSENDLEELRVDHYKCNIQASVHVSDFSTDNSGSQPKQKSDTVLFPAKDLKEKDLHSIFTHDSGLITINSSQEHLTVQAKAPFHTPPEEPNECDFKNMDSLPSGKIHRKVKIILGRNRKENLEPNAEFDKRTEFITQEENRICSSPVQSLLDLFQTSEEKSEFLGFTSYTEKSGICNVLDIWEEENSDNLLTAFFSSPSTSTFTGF

Structure (SMILES): NC(=O)C[C@H]1CCc2sc3ncnc(O[C@H]4CC[C@H](N5CCOCC5)CC4)c3c21
IC50 [6]: 22 nM

Structure (SMILES): NC(=O)c1[nH]cc(-c2ccncc2)c1Cl
IC50 (CDK8/Cyclin C [7]): 7 nM

Structure (SMILES): CN(C)[C@H]1C[C@@]23CC[C@@]4(O2)C(=CC[C@]2(C)[C@@H](c5ccc6ccncc6c5)CC[C@H]24)C=C3[C@@H](O)[C@@H]1O
Activity (SET-2): 71%

Structure (SMILES): Brc1c(Br)c2c3c(nc(N4CCNCC4)n3CCC2)c1Br
inhibition [8]: 96%

Structure (SMILES): OC[C@H](Nc1cncc(-c2ccc3[nH]ncc3c2)c1)c1ccccc1
IC50 (CDK8/Cyclin C [7]): 0.4 nM

Structure (SMILES): OC[C@H](Nc1cncc(-c2ccc(O)c(Cl)c2)n1)c1ccccc1
IC50 (CDK8/Cyclin C [7]): 0.2 nM

Structure (SMILES): c1cc2cc(c1)-c1cnc3ccc(nn13)NCCCCCO2
EC50 [9]: 337 nM
IC50 (CDK8/Cyclin C [10]): 31 nM

Structure (SMILES): CSc1sc(C(N)=O)c2c1-c1sncc1CC2
inhibition [11]: inactive
inhibition [12]: inactive
inhibition (Homo sapiens): 62%
inhibition [13]: inactive
microsomal CLint at 1 µM [1]: 137 µL/min/mg
inhibition [14]: 64%
inhibition [15]: 91%
inhibition [16]: 95%
inhibition [17]: inactive
EC50 [2]: 8.9 nM
inhibition [18]: inactive
inhibition [19]: inactive
inhibition [20]: inactive
inhibition [21]: 105%
inhibition [22]: inactive
inhibition [23]: inactive
inhibition [24]: 60%
inhibition [25]: inactive
inhibition [26]: 97%
inhibition [27]: inactive
inhibition [28]: inactive
inhibition [29]: inactive
IC50 [4]: 1.3 to 1.7 nM
inhibition [30]: 99%
IC50 (CDK8/Cyclin C [5]): 0.65 nM
inhibition [31]: 94%
inhibition [32]: inactive
IC50 [33]: 4 nM
inhibition [34]: 77%
inhibition [35]: 62%
inhibition [36]: inactive
inhibition [37]: inactive
inhibition [38]: 81%

The next lines start with the values.

microsomal CLint at 1 µM [1]: 127 µL/min/mg
EC50 [2]: 0.58 nM
solubility [3]: 4 µg/mL (≈ 11.2 µM)
IC50 [4]: 0.36 nM
IC50 (CDK8/Cyclin C [5]): 0.59 nM
Structure (SMILES): CNc1ccc(Oc2sc(C(N)=O)c3c2-c2sncc2CC3)cn1

microsomal CLint at 1 µM [1]: 30 µL/min/mg
EC50 [2]: 2.3 nM
solubility [3]: 4.5 µg/mL (≈ 13.1 µM)
IC50 [4]: 1.1 nM
IC50 (CDK8/Cyclin C [5]): 0.6 nM
Structure (SMILES): NC(=O)c1sc(Oc2ccc(N)nc2)c2c1CCc1cnsc1-2

microsomal CLint at 1 µM [1]: 21 µL/min/mg
EC50 [2]: 7.4 nM
solubility [3]: 56 µg/mL (≈ 126 µM)
IC50 [4]: 2.4 nM
IC50 (CDK8/Cyclin C [5]): 2.4 nM
Structure (SMILES): CC(C)(O)CNC(=O)c1ccc(Oc2sc(C(N)=O)c3c2-c2sncc2CC3)cn1

microsomal CLint at 1 µM [1]: 19 µL/min/mg
EC50 [2]: 1.4 nM
solubility [3]: 4.1 µg/mL (≈ 11 µM)
IC50 [4]: 0.97 nM
IC50 (CDK8/Cyclin C [5]): 0.93 nM
Structure (SMILES): NC(=O)c1ccc(Oc2sc(C(N)=O)c3c2-c2sncc2CC3)cn1

microsomal CLint at 1 µM [1]: 73 µL/min/mg
EC50 [2]: 1.5 nM
solubility [3]: 15 µg/mL (≈ 33.7 µM)
IC50 [4]: 1.9 nM
IC50 (CDK8/Cyclin C [5]): 1.1 nM
Structure (SMILES): CCOCCNC(=O)c1ccc(Oc2sc(C(N)=O)c3c2-c2sncc2CC3)cn1

microsomal CLint at 1 µM [1]: 36 µL/min/mg
EC50 [2]: 21 nM
solubility [3]: 65 µg/mL (≈ 162 µM)
IC50 [4]: 21 nM
IC50 (CDK8/Cyclin C [5]): 23 nM
Structure (SMILES): CN(C)C(=O)c1ccc(Oc2sc(C(N)=O)c3c2-c2sncc2CC3)cn1
